Assay results published in ChEMBL document CHEMBL1201862, “PubChem BioAssay data set” (2004).
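Compound exposure: 48 hours, 5 concentrations, 96-well plates. Abbreviation: GI50, concentration required for 50% inhibition of growth.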 Activity calls are given as the source filed them. No stated cut-off is given here; in the data, active = GI50 up to about 1.1 µM and inactive = higher.

What was measured:
Assay in all cases: DTP human tumour cell line panel, 48 h
M19-MEL = tested on: M19-MEL
MOLT-4 = tested on: MOLT-4
NCI-H23 = tested on: NCI-H23
DLD-1 = tested on: DLD-1
SNB-78 = tested on: SNB-78
HOP-92 = tested on: HOP-92
HOP-18 = tested on: HOP-18
Malme-3M = tested on: Malme-3M
XF498 = tested on: XF498
UACC-62 = tested on: UACC-62
LOX IMVI = tested on: LOX IMVI
CAKI-1 = tested on: CAKI-1
A498 = tested on: A498
Hs-578T = tested on: Hs-578T
NCI/ADR-RES = tested on: NCI/ADR-RES
MDA-MB-435 = tested on: MDA-MB-435
MDA-N = tested on: MDA-N
BT-549 = tested on: BT-549
786-0 = tested on: 786-0
DMS-273 = tested on: DMS-273

Row | SMILES | GI50 (M19-MEL) | GI50 (MOLT-4) | GI50 (NCI-H23) | GI50 (DLD-1) | GI50 (SNB-78) | GI50 (HOP-92) | GI50 (HOP-18) | GI50 (Malme-3M) | GI50 (XF498) | GI50 (UACC-62) | GI50 (LOX IMVI) | GI50 (CAKI-1) | GI50 (A498) | GI50 (Hs-578T) | GI50 (NCI/ADR-RES) | GI50 (MDA-MB-435) | GI50 (MDA-N) | GI50 (BT-549) | GI50 (786-0) | GI50 (DMS-273)
1 | CC1=NC(C(=O)O)Cc2c1[nH]c1ccccc21 (stereo not drawn) | > 100 µM (inactive) | > 100 µM (inactive) | > 100 µM (inactive) | > 100 µM (inactive) | > 100 µM (inactive) | 14.6 µM (inactive) | > 100 µM (inactive) | > 100 µM (inactive) | > 100 µM (inactive) | > 100 µM (inactive) | > 100 µM (inactive) | > 100 µM (inactive) | > 100 µM (inactive) | – | – | – | – | – | – | –
2 | Fc1c(F)c(F)c(CSc2nc3ccccc3[nH]2)c(F)c1F | – | > 100 µM (inactive) | > 100 µM (inactive) | – | – | 47 µM (inactive) | – | > 100 µM (inactive) | – | > 100 µM (inactive) | > 100 µM (inactive) | > 100 µM (inactive) | > 100 µM (inactive) | > 100 µM (inactive) | > 100 µM (inactive) | > 100 µM (inactive) | > 100 µM (inactive) | > 100 µM (inactive) | – | –
3 | CCOC(=O)CNC(=O)C(CCC(=O)N(C)O)NC(=O)CCC(N)C(=O)O (stereo not drawn) | – | > 100 µM (inactive) | > 100 µM (inactive) | – | – | > 100 µM (inactive) | – | – | – | > 100 µM (inactive) | > 100 µM (inactive) | > 100 µM (inactive) | > 100 µM (inactive) | > 100 µM (inactive) | > 100 µM (inactive) | > 100 µM (inactive) | > 100 µM (inactive) | > 100 µM (inactive) | > 100 µM (inactive) | –
4 | O=C1NC2(CCCCC2)C2CCCCCC12 (stereo not drawn) | – | > 100 µM (inactive) | > 100 µM (inactive) | > 100 µM (inactive) | > 100 µM (inactive) | – | – | > 100 µM (inactive) | > 100 µM (inactive) | > 100 µM (inactive) | > 100 µM (inactive) | – | > 100 µM (inactive) | – | – | – | – | – | – | –
5 | CCOC(=O)c1csc(NC(=O)CCCC#N)n1 | – | > 100 µM (inactive) | > 100 µM (inactive) | – | – | > 100 µM (inactive) | – | – | – | > 100 µM (inactive) | > 100 µM (inactive) | > 100 µM (inactive) | > 100 µM (inactive) | > 100 µM (inactive) | > 100 µM (inactive) | > 100 µM (inactive) | > 100 µM (inactive) | – | – | –
6 | O=C1CN(c2ccccc2)C(=O)C1C(=O)Nc1ccc(Cl)c(Cl)c1 (stereo not drawn) | 1.77 µM (inactive) | 2.33 µM (inactive) | 7.31 µM (inactive) | 5.08 µM (inactive) | – | 2.53 µM (inactive) | – | – | – | 1.73 µM (inactive) | – | – | – | – | – | – | – | – | – | 3.1 µM (inactive)
7 | CO/C(=N/N1CC1C(F)(F)F)c1ccncc1 (stereo not drawn) | – | 30.8 µM (inactive) | > 100 µM (inactive) | – | – | > 100 µM (inactive) | – | > 100 µM (inactive) | – | > 100 µM (inactive) | – | > 100 µM (inactive) | > 100 µM (inactive) | > 100 µM (inactive) | > 100 µM (inactive) | > 100 µM (inactive) | > 100 µM (inactive) | 43.3 µM (inactive) | – | –
8 | Cc1ccc([N+](=O)[O-])cc1S(=O)(=O)Nc1ccc(C2=NNC(c3cccs3)C2)cc1 (stereo not drawn) | – | 13.7 µM (inactive) | 22.2 µM (inactive) | – | – | 60 µM (inactive) | – | 23.4 µM (inactive) | – | 14.5 µM (inactive) | 28.7 µM (inactive) | 30.5 µM (inactive) | 20.4 µM (inactive) | 58.2 µM (inactive) | 26.5 µM (inactive) | 35.6 µM (inactive) | 34.9 µM (inactive) | 23.2 µM (inactive) | 31.3 µM (inactive) | –
9 | Cn1c2c(c3ccccc31)CCN(CCCCN1CCCCC1)C2=O | 60.1 µM (inactive) | > 100 µM (inactive) | > 100 µM (inactive) | > 100 µM (inactive) | 43.1 µM (inactive) | > 100 µM (inactive) | > 100 µM (inactive) | – | > 100 µM (inactive) | 28.3 µM (inactive) | – | > 100 µM (inactive) | > 100 µM (inactive) | – | – | – | – | – | > 100 µM (inactive) | > 100 µM (inactive)
10 | CC1(C)C2CCC3(OCCO3)C1C(O)C2 (stereo not drawn) | > 100 µM (inactive) | > 100 µM (inactive) | > 100 µM (inactive) | > 100 µM (inactive) | > 100 µM (inactive) | > 100 µM (inactive) | > 100 µM (inactive) | > 100 µM (inactive) | > 100 µM (inactive) | > 100 µM (inactive) | > 100 µM (inactive) | > 100 µM (inactive) | > 100 µM (inactive) | – | – | – | – | – | > 100 µM (inactive) | > 100 µM (inactive)
11 | Cc1ccc([N+](=O)[O-])cc1/N=N/C(=O)NNc1cc([N+](=O)[O-])ccc1C | – | 9.29 µM (inactive) | 48.9 µM (inactive) | – | – | 70.8 µM (inactive) | – | 37.6 µM (inactive) | – | 14.7 µM (inactive) | – | 25.9 µM (inactive) | 21.4 µM (inactive) | 26.4 µM (inactive) | 27.9 µM (inactive) | 22.2 µM (inactive) | 26.6 µM (inactive) | 22.5 µM (inactive) | – | –
12 | COc1cc2c(cc1OC)C(Cl)C(c1cc(OC)c(OC)c(OC)c1)=C2Cl (stereo not drawn) | 14.8 µM (inactive) | 7.06 µM (inactive) | 19.3 µM (inactive) | 19.4 µM (inactive) | 12.2 µM (inactive) | 4.73 µM (inactive) | 14.7 µM (inactive) | 14.1 µM (inactive) | – | 13.6 µM (inactive) | 13.1 µM (inactive) | 9.1 µM (inactive) | 22.3 µM (inactive) | – | – | – | – | – | – | 16.5 µM (inactive)
13 | CN(C)CCSc1nccc(-c2ccc(-c3ccnc(SCCN(C)C)n3)s2)n1 | 9.42 µM (inactive) | 0.76 µM (active) | 11.2 µM (inactive) | 4.81 µM (inactive) | 13 µM (inactive) | 10.9 µM (inactive) | 27.2 µM (inactive) | 11.9 µM (inactive) | 15.6 µM (inactive) | 15.3 µM (inactive) | 3.42 µM (inactive) | 13.5 µM (inactive) | 15.1 µM (inactive) | – | 4.91 µM (inactive) | – | – | – | – | 8.3 µM (inactive)
14 | C1CCC2(CC1)O[C@@H]1[C@@H](O2)[C@@H](O[C@H]2O[C@@H]3COC4(CCCCC4)O[C@H]3[C@@H]3OC4(CCCCC4)O[C@@H]23)O[C@@H]2COC3(CCCCC3)O[C@@H]12 | – | 23.9 µM (inactive) | > 100 µM (inactive) | – | – | > 100 µM (inactive) | – | > 100 µM (inactive) | – | > 100 µM (inactive) | > 100 µM (inactive) | > 100 µM (inactive) | > 100 µM (inactive) | > 100 µM (inactive) | > 100 µM (inactive) | > 100 µM (inactive) | > 100 µM (inactive) | > 100 µM (inactive) | > 100 µM (inactive) | –
15 | c1ccc(/N=C2/SC3=Nc4cccc5cccc(c45)N3/C2=N/c2ccccc2)cc1 | – | 79.3 µM (inactive) | > 100 µM (inactive) | – | – | > 100 µM (inactive) | – | > 100 µM (inactive) | – | > 100 µM (inactive) | – | > 100 µM (inactive) | > 100 µM (inactive) | > 100 µM (inactive) | > 100 µM (inactive) | > 100 µM (inactive) | > 100 µM (inactive) | > 100 µM (inactive) | – | –
16 | CSC1NC(c2ccccc2)=C(C#N)C(=O)N1C1OCC(OC(C)=O)C(OC(C)=O)C1OC(C)=O (stereo not drawn) | – | > 100 µM (inactive) | > 100 µM (inactive) | – | – | 86.3 µM (inactive) | – | > 100 µM (inactive) | – | > 100 µM (inactive) | > 100 µM (inactive) | > 100 µM (inactive) | > 100 µM (inactive) | > 100 µM (inactive) | > 100 µM (inactive) | > 100 µM (inactive) | > 100 µM (inactive) | > 100 µM (inactive) | > 100 µM (inactive) | –
17 | COc1ccc2c(C)cc(N/N=C/c3sccc3C)nc2c1 | – | 13.5 µM (inactive) | 14.7 µM (inactive) | – | – | 16.1 µM (inactive) | – | 6.95 µM (inactive) | – | 15.9 µM (inactive) | 7.59 µM (inactive) | – | – | 12.5 µM (inactive) | 10 µM (inactive) | 16.6 µM (inactive) | 14.3 µM (inactive) | 13.1 µM (inactive) | – | –
18 | CCOC(=O)NC(=O)c1cn(CCSCCOC(=O)NCCCCCCNC(=O)OCCSCCn2cc(C(=O)NC(=O)OCC)c(=O)[nH]c2=O)c(=O)[nH]c1=O | > 100 µM (inactive) | – | > 100 µM (inactive) | > 100 µM (inactive) | > 100 µM (inactive) | > 100 µM (inactive) | > 100 µM (inactive) | > 100 µM (inactive) | – | > 100 µM (inactive) | > 100 µM (inactive) | > 100 µM (inactive) | – | – | – | – | – | – | – | > 100 µM (inactive)
19 | CCOC1=C2N=C(Cc3ccc(F)cc3)NC2C(=O)c2ccccc21 (stereo not drawn) | 9.44 µM (inactive) | 17.5 µM (inactive) | 18.3 µM (inactive) | 27 µM (inactive) | 69 µM (inactive) | 10.7 µM (inactive) | – | 11.5 µM (inactive) | > 10 µM (inactive) | 22.1 µM (inactive) | 22.2 µM (inactive) | – | 21.6 µM (inactive) | – | – | – | – | – | 20.8 µM (inactive) | 9.71 µM (inactive)
20 | NC1(C(=O)O)CCc2ccc(N(CCCl)CCCl)cc2C1 (stereo not drawn) | 85.5 µM (inactive) | 4.74 µM (inactive) | > 100 µM (inactive) | > 100 µM (inactive) | – | > 100 µM (inactive) | > 100 µM (inactive) | 1 µM (active) | 43.1 µM (inactive) | 22.5 µM (inactive) | 39.7 µM (inactive) | – | > 100 µM (inactive) | – | > 100 µM (inactive) | – | – | – | – | 38.8 µM (inactive)
